# Measured values reported in EPA's ToxValDB 9.5 (doi:10.2903/j.efsa.2009.1415).
# Legend:
# [1] = system: Rattus norvegicus
# [2] = system: Colinus virginianus
# [3] = system: Anas platyrhynchos; settings: short-term; oral; feed; mortality
# [4] = system: Cyprinus carpio; settings: acute; duration: 96 hours; mortality
# [5] = system: Apis mellifera; settings: acute; duration: 48 hours; dermal; mortality
# [6] = system: Pimephales promelas; settings: chronic/long-term; duration: 35 days; growth
# [7] = system: Daphnia magna; settings: chronic/long-term; duration: 21 days; reproduction
# [8] = system: Typhlodromus pyri; experiment: LR50; higher = less toxic; settings: not reported; mortality
compound,measurement,setting,value
CCCOCC(=Nc1ccc(Cl)cc1C(F)(F)F)n1ccnc1 [Triflumizole],LD50,"[1]; acute, oral, mortality",1060 mg/kg-day
same,NOAEL,"[1]; chronic, duration: 2 years, organ weight",3.5 mg/kg-day
same,NOAEL,"[1]; developmental, development",10 mg/kg-day
same,NOAEL,"[1]; reproduction developmental, reproduction",4.8 mg/kg-day
same,NOAEL,"[1]; subchronic, duration: 90 days, organ weight",4.1 mg/kg-day
same,LD50,"[2]; acute, oral, mortality",> 2510 mg/kg-day
same,NOEC,[2]; reproduction developmental,≥ 97.2 mg/kg-day
same,LC50,[3],> 1430 mg/kg-day
same,LC50,[4],1.28 µg/mL
same,LD50,[5],> 20 µg/piece
same,NOEC,[6],0.044 mg/L
same,NOEC,[7],0.18 mg/L
same,LR50,[8],63 g/ha
